Values belong to the compound of their own block, whether it stands above or below them. Active and inactive are the calls of the source. The rule behind the calls is not given here.
What was measured:
Histone deacetylase [1] = test: Inhibition of HDAC in HeLa cells; type: cell-based, Homo sapiens
Histone deacetylase [2] = test: Inhibition of HDAC in HeLa cells assessed as induction of human histone H3 hyperacetylation; type: cell-based
HeLa = test: Cytotoxicity against HeLa cells; type: functional, cell-based; details: Homo sapiens
Histone deacetylase 1 = Histone deacetylase 1 (Homo sapiens, UniProt Q13547)
Description: Inhibition of recombinant HDAC1 in HeLa cells

MDA-MB-231 = test: Cytotoxicity against human MDA-MB-231cells; type: functional, cell-based
SK-OV-3 = test: Cytotoxicity against human SK-OV-3 cells; type: functional, cell-based
SAOS-2 = test: Cytotoxicity against human Saos2 cells; type: functional, cell-based
Histone deacetylase 3 = Histone deacetylase 3 (Homo sapiens, UniProt O15379); test: Inhibition of recombinant HDAC3
Histone deacetylase 8 = Histone deacetylase 8 (Homo sapiens, UniProt Q9BY41); test: Inhibition of recombinant HDAC8
NCI-H460 = test: Cytotoxicity against human NCI H460 cells; type: functional, cell-based
A549 [3] = test: Cytotoxicity against human A549 cells; type: functional, cell-based
NCI = test: Cytotoxicity against human NCI H69 cells; type: functional, cell-based
MCF7 = test: Cytotoxicity against human MCF7 cells; type: functional, cell-based
MDA-MB-468 = test: Cytotoxicity against human MDA-MB-468 cells; type: functional, cell-based
SK-BR-3 = test: Cytotoxicity against human SKBR3 cells; type: functional, cell-based
A2780 = test: Cytotoxicity against human A2780 cells; type: functional, cell-based
[4] = Cytotoxicity against human non-proliferating RKOp21 cells; type: functional, cell-based
[5] = Cytotoxicity against human proliferating RKOp21 cells; type: functional, cell-based
HCT-15 = test: Cytotoxicity against human HCT15 cells; type: functional, cell-based
HCT-116 = test: Cytotoxicity against human HCT116 cells; type: functional, cell-based
PC-3 = test: Cytotoxicity against human PC3 cells; type: functional, cell-based
ASPC1 = test: Cytotoxicity against human AsPC1 cells; type: functional, cell-based
RKO [6] = test: Induction of human histone H3 hyperacetylation in RKO cells at 1 to 3 uM; type: functional, cell-based
CAL-27 = test: Cytotoxicity against human Cal27 cells; type: functional, cell-based
A-431 = test: Cytotoxicity against human A431 cells; type: functional, cell-based
[7] = Cytotoxicity against human Hec-1-A cells; type: functional, cell-based
[8] = Cytotoxicity against human U87MG cells; type: functional, cell-based, U-87MG ATCC; details: U-87 MG
cells = type: functional, cell-based; details: Homo sapiens, WM 266-4
Description: Cytotoxicity against human WM 266-4 cells

K562 = test: Cytotoxicity against human K562 cells; type: functional, cell-based
EOL1 = test: Cytotoxicity against human EOL1cells; type: functional, cell-based
CCRF-CEM [9] = test: Cytotoxicity against human CCRF-CEM cells; type: functional, cell-based
CCRF-CEM [10] = test: Cytotoxicity against vincristine resistant human CCRF-CEM cells; type: functional, cell-based
A549 [11] = test: Induction of apoptosis in A549 cells at 10 uM; type: functional, cell-based; details: Homo sapiens
A549 [12] = test: Induction of human histone H3 hyperacetylation in A549 cells at 1 to 3 uM; type: functional, cell-based
RKO [13] = test: Inhibition of histone-H3S phosphorylation in human RKO cells at 10 uM; type: cell-based
549 = test: Inhibition of histone-H3S phosphorylation in […] cells at 10 uM; type: cell-based

Sequence of Histone deacetylase 1 (Q13547 whole entry): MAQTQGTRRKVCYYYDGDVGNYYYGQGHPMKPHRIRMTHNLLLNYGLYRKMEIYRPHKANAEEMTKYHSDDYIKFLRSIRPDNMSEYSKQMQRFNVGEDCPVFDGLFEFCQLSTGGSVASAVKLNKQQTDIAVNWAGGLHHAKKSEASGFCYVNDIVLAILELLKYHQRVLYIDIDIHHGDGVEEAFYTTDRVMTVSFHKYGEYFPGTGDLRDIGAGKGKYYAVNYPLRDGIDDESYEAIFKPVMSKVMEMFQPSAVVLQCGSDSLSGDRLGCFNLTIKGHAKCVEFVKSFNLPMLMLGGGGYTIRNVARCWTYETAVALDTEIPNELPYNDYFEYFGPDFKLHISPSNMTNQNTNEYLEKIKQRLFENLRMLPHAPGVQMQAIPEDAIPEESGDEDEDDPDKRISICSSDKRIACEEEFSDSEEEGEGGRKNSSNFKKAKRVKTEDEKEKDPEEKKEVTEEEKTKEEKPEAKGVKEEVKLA
Sequence of Histone deacetylase 8 (Q9BY41 whole entry): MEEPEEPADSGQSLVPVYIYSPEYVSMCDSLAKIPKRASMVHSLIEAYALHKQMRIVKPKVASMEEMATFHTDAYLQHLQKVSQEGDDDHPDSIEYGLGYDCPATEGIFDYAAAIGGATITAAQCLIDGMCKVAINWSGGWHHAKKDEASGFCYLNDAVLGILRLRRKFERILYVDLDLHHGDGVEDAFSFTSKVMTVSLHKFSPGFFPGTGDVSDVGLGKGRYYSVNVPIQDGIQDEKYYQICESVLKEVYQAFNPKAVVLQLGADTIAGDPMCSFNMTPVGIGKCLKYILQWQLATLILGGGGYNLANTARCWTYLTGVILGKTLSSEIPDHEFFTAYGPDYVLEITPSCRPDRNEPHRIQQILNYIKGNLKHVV
Sequence of Histone deacetylase 3 (O15379 whole entry): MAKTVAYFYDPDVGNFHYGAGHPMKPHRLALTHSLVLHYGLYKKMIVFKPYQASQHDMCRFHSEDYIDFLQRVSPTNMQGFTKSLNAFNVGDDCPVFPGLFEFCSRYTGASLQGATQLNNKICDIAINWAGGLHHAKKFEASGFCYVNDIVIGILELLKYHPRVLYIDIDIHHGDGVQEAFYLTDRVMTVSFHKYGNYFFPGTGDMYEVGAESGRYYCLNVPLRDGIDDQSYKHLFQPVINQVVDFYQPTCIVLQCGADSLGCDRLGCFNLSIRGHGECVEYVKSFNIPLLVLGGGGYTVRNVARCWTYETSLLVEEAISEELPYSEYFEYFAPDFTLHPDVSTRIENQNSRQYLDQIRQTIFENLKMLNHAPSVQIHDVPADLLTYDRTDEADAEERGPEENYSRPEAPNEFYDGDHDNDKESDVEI

SMILES: O=C(/C=C/c1ccc2oc(C(=O)c3ccccc3)cc2c1)NO
IC50 (Histone deacetylase [1]): 0.83 µM | EC50 (Histone deacetylase [2]): 2.65 µM | IC50 (HeLa): 5.61 µM | IC50 (Histone deacetylase 1): 1200 nM

SMILES: O=C(/C=C/c1ccc(C(=O)c2cc3ccccc3o2)cc1)NO
IC50 (Histone deacetylase [1]): 0.45 µM | EC50 (Histone deacetylase [2]): 1.1 µM | IC50 (HeLa): 2.6 µM | IC50 (Histone deacetylase 1): 520 nM

SMILES: COc1cccc(C(=O)c2cc3cc(/C=C/C(=O)NO)ccc3o2)c1
IC50 (Histone deacetylase [1]): 0.65 µM | EC50 (Histone deacetylase [2]): 4.1 µM | IC50 (HeLa): 4.11 µM | IC50 (Histone deacetylase 1): 950 nM

SMILES: O=C(CCCCCCC(=O)Nc1ccccc1)NO [VORINOSTAT]
IC50 (MDA-MB-231): 2200 nM | IC50 (SK-OV-3): 2200 nM | IC50 (SAOS-2): 2300 nM

SMILES: COc1cc(C(=O)c2cc3cc(/C=C/C(=O)NO)ccc3o2)cc(OC)c1OC
IC50 (Histone deacetylase [1]): 1 µM | EC50 (Histone deacetylase [2]): 7.5 µM | IC50 (HeLa): 5.77 µM | IC50 (Histone deacetylase 1): 1100 nM

SMILES: COc1ccc2c(c1)cc(C(=O)c1ccc(/C=C/C(=O)NO)cc1)n2S(=O)(=O)c1ccccc1
IC50 (Histone deacetylase [1]): 0.26 µM | EC50 (Histone deacetylase [2]): 6.9 µM | IC50 (HeLa): 5.42 µM | IC50 (Histone deacetylase 1): 880 nM

SMILES: O=C(/C=C/c1cccc(C(=O)c2cc3ccccc3[nH]2)c1)NO
IC50 (Histone deacetylase [1]): 0.039 µM | EC50 (Histone deacetylase [2]): 1.3 µM | IC50 (HeLa): 0.85 µM | IC50 (Histone deacetylase 3): 50 nM | IC50 (Histone deacetylase 8): 32 nM | IC50 (NCI-H460): 260 nM | IC50 (A549 [3]): 970 nM | IC50 (NCI): 330 nM | IC50 (MCF7): 1900 nM | IC50 (MDA-MB-468): 550 nM | IC50 (MDA-MB-231): 900 nM | IC50 (SK-BR-3): 530 nM | IC50 (SK-OV-3): 900 nM | IC50 (A2780): 340 nM | IC50 [4]: 2.57 µM | IC50 [5]: 1050 nM | IC50 (HCT-15): 770 nM | IC50 (HCT-116): 360 nM | IC50 (PC-3): 210 nM | IC50 (ASPC1): 3.9 µM | Activity (RKO [6]): Active | IC50 (CAL-27): 750 nM | IC50 (A-431): 600 nM | IC50 [7]: 620 nM | IC50 (SAOS-2): 1000 nM | IC50 [8]: 1000 nM | IC50 (cells): 310 nM | IC50 (K562): 170 nM | IC50 (EOL1): 73 nM | IC50 (CCRF-CEM [9]): 200 nM | IC50 (CCRF-CEM [10]): 250 nM | Activity (A549 [11]): Active | Activity (A549 [12]): Active | Activity (RKO [13]): Active | Activity 549: Active | IC50 (Histone deacetylase 1): 31 nM

SMILES: O=C(/C=C/c1cccc(C(=O)c2cc3ccccc3o2)c1)NO
IC50 (Histone deacetylase [1]): 0.057 µM | EC50 (Histone deacetylase [2]): 0.29 µM | IC50 (HeLa): 0.68 µM | IC50 (Histone deacetylase 3): 79 nM | IC50 (Histone deacetylase 8): 79 nM | IC50 (NCI-H460): 250 nM | IC50 (A549 [3]): 770 nM | IC50 (NCI): 190 nM | IC50 (MCF7): 1300 nM | IC50 (MDA-MB-468): 500 nM | IC50 (MDA-MB-231): 730 nM | IC50 (SK-BR-3): 310 nM | IC50 (SK-OV-3): 740 nM | IC50 (A2780): 350 nM | IC50 [4]: 3.69 µM | IC50 [5]: 960 nM | IC50 (HCT-15): 740 nM | IC50 (HCT-116): 360 nM | IC50 (PC-3): 160 nM | IC50 (ASPC1): 3.5 µM | Activity (RKO [6]): Active | IC50 (CAL-27): 660 nM | IC50 (A-431): 590 nM | IC50 [7]: 470 nM | IC50 (SAOS-2): 920 nM | IC50 [8]: 1100 nM | IC50 (cells): 310 nM | IC50 (K562): 150 nM | IC50 (EOL1): 49 nM | IC50 (CCRF-CEM [9]): 180 nM | IC50 (CCRF-CEM [10]): 240 nM | Activity (A549 [11]): Active | Activity (A549 [12]): Active | Activity (RKO [13]): Active | Activity 549: Active | IC50 (Histone deacetylase 1): 52 nM

SMILES: O=C(/C=C/c1ccc(C(=O)c2cc3ccccc3n2S(=O)(=O)c2ccccc2)cc1)NO
IC50 (Histone deacetylase [1]): 0.27 µM | EC50 (Histone deacetylase [2]): 5.7 µM | IC50 (HeLa): 5.42 µM | IC50 (Histone deacetylase 1): 690 nM

SMILES: O=C(/C=C/c1ccc(C(=O)c2cc3ccccc3[nH]2)cc1)NO
IC50 (Histone deacetylase [1]): 0.31 µM | EC50 (Histone deacetylase [2]): 2.97 µM | IC50 (HeLa): 4.75 µM | IC50 (Histone deacetylase 1): 410 nM

Second part, led by results:

IC50 (Histone deacetylase [1]): 0.34 µM | EC50 (Histone deacetylase [2]): 3.77 µM | IC50 (Histone deacetylase 1): 250 nM
SMILES: O=C(/C=C/c1ccc2[nH]c(C(=O)c3ccccc3)cc2c1)NO
IC50 (HeLa): 3.97 µM

IC50 (Histone deacetylase [1]): 0.09 µM | EC50 (Histone deacetylase [2]): 2.67 µM | IC50 (Histone deacetylase 1): 200 nM
SMILES: O=C(/C=C/c1ccc2c(c1)cc(C(=O)c1ccccc1)n2S(=O)(=O)c1ccccc1)NO
IC50 (HeLa): 2.88 µM

IC50 (Histone deacetylase [1]): 0.12 µM | EC50 (Histone deacetylase [2]): 2.78 µM | IC50 (Histone deacetylase 1): 230 nM
SMILES: COc1cccc(C(=O)c2cc3cc(/C=C/C(=O)NO)ccc3n2S(=O)(=O)c2ccccc2)c1
IC50 (HeLa): 3.34 µM

IC50 (Histone deacetylase [1]): 0.28 µM | EC50 (Histone deacetylase [2]): 4.27 µM | IC50 (Histone deacetylase 1): 320 nM
SMILES: COc1ccc2[nH]c(C(=O)c3ccc(/C=C/C(=O)NO)cc3)cc2c1
IC50 (HeLa): 3.44 µM

IC50 (Histone deacetylase [1]): 0.034 µM | EC50 (Histone deacetylase [2]): 1 µM | IC50 (Histone deacetylase 1): 89 nM
SMILES: O=C(/C=C/c1cccc(C(=O)c2cc3ccccc3n2S(=O)(=O)c2ccccc2)c1)NO
IC50 (HeLa): 1.73 µM

IC50 (Histone deacetylase [1]): 0.33 µM | EC50 (Histone deacetylase [2]): 2.57 µM | IC50 (Histone deacetylase 1): 300 nM
SMILES: COc1cccc(C(=O)c2cc3cc(/C=C/C(=O)NO)ccc3[nH]2)c1
IC50 (HeLa): 2.96 µM

Reference: ChEMBL document CHEMBL1148761, “2-aroylindoles and 2-aroylbenzofurans with N-hydroxyacrylamide substructures as a novel series of rationally designed histone deacetylase inhibitors” (J Med Chem, 2007)
